Experimental data reported in ChEMBL document CHEMBL1201862, “PubChem BioAssay data set” (2004).
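The compound was tested at five concentrations on cells cultured in 96-well plates, with a 48-hour exposure period. GI50 is the concentration that inhibits growth by half.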 Calls of active or inactive are those of the source. No stated cut-off is given here; in the data, active = GI50 up to about 1.1 µM and inactive = higher.

Legend:
Assay in all cases: NCI tumour cell line growth inhibition, 48 h
COLO 205 = test system: COLO 205
K562 = test system: K562
SNB-19 = test system: SNB-19
SK-OV-3 = test system: SK-OV-3
MCF7 = test system: MCF7
MDA-MB-231 = test system: MDA-MB-231
DU-145 = test system: DU-145
HOP-92 = test system: HOP-92
HCT-116 = test system: HCT-116
NCI-H23 = test system: NCI-H23
IGROV-1 = test system: IGROV-1
BT-549 = test system: BT-549
Hs-578T = test system: Hs-578T
MOLT-4 = test system: MOLT-4
UACC-257 = test system: UACC-257
MDA-MB-435 = test system: MDA-MB-435
KM12 = test system: KM12
NCI/ADR-RES = test system: NCI/ADR-RES
RPMI-8226 = test system: RPMI-8226
NCI-H522 = test system: NCI-H522

Structure (SMILES)	GI50 (COLO 205)	GI50 (K562)	GI50 (SNB-19)	GI50 (SK-OV-3)	GI50 (MCF7)	GI50 (MDA-MB-231)	GI50 (DU-145)	GI50 (HOP-92)	GI50 (HCT-116)	GI50 (NCI-H23)	GI50 (IGROV-1)	GI50 (BT-549)	GI50 (Hs-578T)	GI50 (MOLT-4)	GI50 (UACC-257)	GI50 (MDA-MB-435)	GI50 (KM12)	GI50 (NCI/ADR-RES)	GI50 (RPMI-8226)	GI50 (NCI-H522)
CC(=N\N=C\c1ccccn1)/C(C)=N/N=C(C)/C(C)=N/N=C(C)/C(C)=N/N=C/c1ccccn1	> 100 µM (inactive)	> 100 µM (inactive)	> 100 µM (inactive)	> 100 µM (inactive)	> 100 µM (inactive)	> 100 µM (inactive)	> 100 µM (inactive)	> 100 µM (inactive)	> 100 µM (inactive)	> 100 µM (inactive)	> 100 µM (inactive)	> 100 µM (inactive)	> 100 µM (inactive)	> 100 µM (inactive)	> 100 µM (inactive)	> 100 µM (inactive)	> 100 µM (inactive)	> 100 µM (inactive)	> 100 µM (inactive)	> 100 µM (inactive)
CC1(C)C(=O)/C(=C/c2ccccc2)C(C)(C)C1(C)C	> 100 µM (inactive)	35.2 µM (inactive)	> 100 µM (inactive)	> 55.5 µM (inactive)	35.2 µM (inactive)	> 93.8 µM (inactive)	40.7 µM (inactive)	> 40 µM (inactive)	38.5 µM (inactive)	70.6 µM (inactive)	60.1 µM (inactive)	36.1 µM (inactive)	40.6 µM (inactive)	56.2 µM (inactive)	> 100 µM (inactive)	29.4 µM (inactive)	49.9 µM (inactive)	> 90.6 µM (inactive)	31.4 µM (inactive)	63.2 µM (inactive)
CC1(C)CC2=C(Sc3ccccc3N2)C(=O)C1C(=O)C(=O)Nc1cc(Cl)ccc1Cl (stereo not given)	> 100 µM (inactive)	> 100 µM (inactive)	> 100 µM (inactive)	> 100 µM (inactive)	> 100 µM (inactive)	> 100 µM (inactive)	> 100 µM (inactive)	> 100 µM (inactive)	> 100 µM (inactive)	> 100 µM (inactive)	> 100 µM (inactive)	> 100 µM (inactive)	> 100 µM (inactive)	60 µM (inactive)	> 100 µM (inactive)	> 100 µM (inactive)	> 100 µM (inactive)	63.2 µM (inactive)	> 100 µM (inactive)	> 100 µM (inactive)
CC(=O)O[C@@]12[C@@H]3O[C@@]4(O)C[C@]5(C)[C@H]6C[C@@](C(C)C)(O[C@H]5c5ccoc5)O[C@H]1[C@]6(C4)O[C@]2(O)C(C)=CC3(C)C	> 100 µM (inactive)	> 100 µM (inactive)	63.2 µM (inactive)	> 100 µM (inactive)	> 100 µM (inactive)	> 100 µM (inactive)	> 100 µM (inactive)	> 100 µM (inactive)	> 100 µM (inactive)	> 100 µM (inactive)	> 100 µM (inactive)	> 100 µM (inactive)	> 100 µM (inactive)	> 100 µM (inactive)	> 100 µM (inactive)	> 100 µM (inactive)	> 100 µM (inactive)	> 100 µM (inactive)	> 100 µM (inactive)	78.5 µM (inactive)
O=C(NCCCCCN1CCC2(CCCCC2)CC1)C(C1CCCCC1)C1CCCCC1	1.45 µM (inactive)	1.52 µM (inactive)	5.73 µM (inactive)	5.15 µM (inactive)	2.13 µM (inactive)	5.11 µM (inactive)	4.6 µM (inactive)	3.73 µM (inactive)	4.44 µM (inactive)	3.1 µM (inactive)	4.24 µM (inactive)	5.87 µM (inactive)	3.05 µM (inactive)	1.9 µM (inactive)	1.82 µM (inactive)	1.85 µM (inactive)	6.11 µM (inactive)	3.18 µM (inactive)	2.19 µM (inactive)	4.17 µM (inactive)
OCC1OC(n2cnc3c(/C=C(/O)c4ccccc4)ncnc32)C(O)C1O (stereo not given)	0.944 µM (active)	2.83 µM (inactive)	12.4 µM (inactive)	0.428 µM (active)	3.8 µM (inactive)	1.64 µM (inactive)	1.61 µM (inactive)	> 25.1 µM (inactive)	1.55 µM (inactive)	2.82 µM (inactive)	0.927 µM (active)	6.08 µM (inactive)	14.4 µM (inactive)	1.71 µM (inactive)	3.89 µM (inactive)	2.25 µM (inactive)	4.62 µM (inactive)	2.11 µM (inactive)	1.38 µM (inactive)	2.16 µM (inactive)
COc1ccc(C2OC(=O)c3ccc4ccccc4c32)c(C)c1 (stereo not given)	4.36 µM (inactive)	3.55 µM (inactive)	14.7 µM (inactive)	7.82 µM (inactive)	5.65 µM (inactive)	6.12 µM (inactive)	22.2 µM (inactive)	10.9 µM (inactive)	4.93 µM (inactive)	9.53 µM (inactive)	5.51 µM (inactive)	19.5 µM (inactive)	10.2 µM (inactive)	7.73 µM (inactive)	27.5 µM (inactive)	2.36 µM (inactive)	5.87 µM (inactive)	2.37 µM (inactive)	11.1 µM (inactive)	4.42 µM (inactive)
O=C(C(Cl)=C(N1CCOCC1)N1CCOCC1)C(Cl)Cl	> 100 µM (inactive)	> 100 µM (inactive)	> 100 µM (inactive)	> 100 µM (inactive)	94.2 µM (inactive)	> 100 µM (inactive)	> 100 µM (inactive)	> 100 µM (inactive)	> 100 µM (inactive)	> 100 µM (inactive)	> 100 µM (inactive)	> 100 µM (inactive)	> 100 µM (inactive)	> 100 µM (inactive)	> 100 µM (inactive)	> 100 µM (inactive)	> 100 µM (inactive)	> 100 µM (inactive)	> 100 µM (inactive)	> 100 µM (inactive)
CN(C)/C=N/S(=O)(=O)c1nn2c(C=O)c(-c3ccc(-c4ccc([N+](=O)[O-])cc4)o3)nc2s1	1.99 µM (inactive)	1.1 µM (active)	13.9 µM (inactive)	36.1 µM (inactive)	2.13 µM (inactive)	2.65 µM (inactive)	3.64 µM (inactive)	1.84 µM (inactive)	1.34 µM (inactive)	3.1 µM (inactive)	1.72 µM (inactive)	1.72 µM (inactive)	3.88 µM (inactive)	1.19 µM (inactive)	7.41 µM (inactive)	2.68 µM (inactive)	5.64 µM (inactive)	8.15 µM (inactive)	0.931 µM (active)	1.38 µM (inactive)
O=C(O)C1C2CC3C(OC(=O)C31)C2Br (stereo not given)	> 100 µM (inactive)	> 47.8 µM (inactive)	> 100 µM (inactive)	> 100 µM (inactive)	> 100 µM (inactive)	> 100 µM (inactive)	> 100 µM (inactive)	> 100 µM (inactive)	> 100 µM (inactive)	> 100 µM (inactive)	> 100 µM (inactive)	> 100 µM (inactive)	> 100 µM (inactive)	> 39.5 µM (inactive)	> 100 µM (inactive)	> 100 µM (inactive)	> 100 µM (inactive)	> 100 µM (inactive)	> 100 µM (inactive)	> 100 µM (inactive)
CN1CCN(C)C12C=c1ccccc1=CC21CC1	15.7 µM (inactive)	22.8 µM (inactive)	> 83.8 µM (inactive)	> 92.9 µM (inactive)	35.4 µM (inactive)	38.4 µM (inactive)	> 100 µM (inactive)	28.7 µM (inactive)	25.1 µM (inactive)	> 100 µM (inactive)	68.7 µM (inactive)	41 µM (inactive)	21.9 µM (inactive)	21.6 µM (inactive)	23.7 µM (inactive)	22.1 µM (inactive)	29 µM (inactive)	> 68.2 µM (inactive)	30 µM (inactive)	24.5 µM (inactive)
Cc1cc[n+]2c(c1)-c1cc(C)cc[n+]1CC2	22.6 µM (inactive)	> 100 µM (inactive)	> 100 µM (inactive)	> 100 µM (inactive)	> 100 µM (inactive)	> 71.1 µM (inactive)	> 100 µM (inactive)	> 100 µM (inactive)	> 100 µM (inactive)	84.5 µM (inactive)	51.2 µM (inactive)	> 100 µM (inactive)	> 100 µM (inactive)	> 100 µM (inactive)	> 100 µM (inactive)	> 100 µM (inactive)	> 100 µM (inactive)	> 100 µM (inactive)	> 100 µM (inactive)	29.4 µM (inactive)
CSCCCNC(=O)c1csc(-c2csc(CCN)n2)n1	> 100 µM (inactive)	> 100 µM (inactive)	> 100 µM (inactive)	> 100 µM (inactive)	74.1 µM (inactive)	52.5 µM (inactive)	> 100 µM (inactive)	> 100 µM (inactive)	84.5 µM (inactive)	> 100 µM (inactive)	53.6 µM (inactive)	> 100 µM (inactive)	56.8 µM (inactive)	> 100 µM (inactive)	> 100 µM (inactive)	> 100 µM (inactive)	> 100 µM (inactive)	> 100 µM (inactive)	44.7 µM (inactive)	> 100 µM (inactive)
COc1cc(/C=C/c2ccc(OC)c(OC)c2)cc(OC)c1 [(E)-3,4,3',5'-TETRAMETHOXYSTILBENE]	19.2 µM (inactive)	41.1 µM (inactive)	84.9 µM (inactive)	73.6 µM (inactive)	57 µM (inactive)	22.9 µM (inactive)	45.2 µM (inactive)	> 100 µM (inactive)	23.1 µM (inactive)	22.9 µM (inactive)	46.9 µM (inactive)	23.7 µM (inactive)	25.8 µM (inactive)	46.6 µM (inactive)	46.3 µM (inactive)	25.7 µM (inactive)	15.5 µM (inactive)	20.9 µM (inactive)	83.4 µM (inactive)	18.8 µM (inactive)
